From ChEMBL document CHEMBL5725380, “Substituted biaryl compound” (2017) come the findings set out here.

For orientation: Ki means the dissociation constant of the complex between target and ligand, obtained from inhibition or displacement.

The target in this assay is Prostaglandin E2 receptor EP2 subtype (Homo sapiens, UniProt P43116). Put plainly: Binding Assay: Measurement of EP2 receptor binding action was performed in accordance with the method of Abramovitz et al. (Biochimica et Biophysica Acta, 1483, 285 (2000)). A test compound dissolved in dimethyl sulfoxide (final concentration: 1.0 (V/V) %) and [3H]prostaglandin E2 (NET-428, manufactured by PerkinElmer) (final concentration: 10 nM) were added to a buffer solution (10 mM MES-KOH (pH 6.0), 10 mM MgCl2, 1 mM EDTA) in which 10 μg of a membrane fraction of HEK293 cells expressing human EP2 receptor (ES-562-M, manufactured by Euroscreen) was suspended, and then incubated at 30° C. for 60 minutes. The membrane fraction was recovered on glass fiber filter paper (GF/B, manufactured by Whatman) using a cell harvester (M30R, manufactured by Brandel), and after washing with a buffer solution (10 mM MES-KOH (pH 6.0), 10 mM MgCl2), radioactivity was measured with a liquid scintillation analyzer (2000CA, manufactured by Packard). It is filed as cell membranes.
Prostaglandin E2 receptor EP2 subtype, sequence (P43116 whole entry): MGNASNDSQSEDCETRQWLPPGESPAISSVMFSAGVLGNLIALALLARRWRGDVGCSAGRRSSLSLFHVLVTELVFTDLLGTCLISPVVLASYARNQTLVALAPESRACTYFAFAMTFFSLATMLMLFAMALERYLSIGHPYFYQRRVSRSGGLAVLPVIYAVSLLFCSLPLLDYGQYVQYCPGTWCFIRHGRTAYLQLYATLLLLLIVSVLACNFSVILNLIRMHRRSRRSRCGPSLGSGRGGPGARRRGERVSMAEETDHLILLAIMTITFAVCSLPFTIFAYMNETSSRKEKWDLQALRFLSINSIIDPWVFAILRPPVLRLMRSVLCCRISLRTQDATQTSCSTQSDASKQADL

Take `O=C(O)CNc1cccc(CN(Cc2ccc(-c3ccc(Cl)cc3)cc2)S(=O)(=O)c2cccnc2)n1`: the Ki was above 10 nM.
With `CCOc1ccccc1-c1ccc(CN(Cc2cccc(NCC(=O)O)n2)S(=O)(=O)c2ccccn2)cc1`, the inhibition constant (Ki) came to 2.6 nM.
For `Cc1cnc(-c2ccc(CN(Cc3cccc(NCC(=O)O)n3)S(=O)(=O)c3ccccn3)cc2)s1`, the Ki is above 10 nM.
`CC#Cc1cccc(-c2ccc(CN(Cc3cccc(NCC(=O)O)n3)S(=O)(=O)c3cccc(F)c3)cc2)c1`: the Ki worked out at 1.4 nM.
With `CCOc1ccc(-c2ccc(CN(Cc3cccc(NCC(=O)O)n3)S(=O)(=O)c3ccccn3)cc2)cc1`, the Ki is above 10 nM.
In the case of `CCCc1cccc(-c2ccc(CN(Cc3cccc(NCC(=O)O)n3)S(=O)(=O)c3ccccn3)cc2)c1`, the inhibition constant Ki turned out to be 1.1 nM.
Consider `CC#Cc1ccc(-c2ccc(CN(Cc3cccc(NCC(=O)O)n3)S(=O)(=O)c3ccccn3)cc2)cc1`, for which the inhibition constant (Ki) was 6.8 nM.
Under `Cc1cccc(-c2ccc(CN(Cc3cccc(NCC(=O)O)n3)S(=O)(=O)c3ccccn3)cc2)c1` stands 2.2 nM; under `CCc1cccc(-c2ccc(CN(Cc3cccc(NCC(=O)O)n3)S(=O)(=O)c3ccccn3)cc2)c1`, 1.4 nM.
`COc1cccc(-c2ccc(CN(Cc3cccc(NCC(=O)O)n3)S(=O)(=O)c3ccccn3)cc2)c1`: the Ki turned out to be 1.2 nM.
In the case of `CC#Cc1ccccc1-c1ccc(CN(Cc2cccc(NCC(=O)O)n2)S(=O)(=O)c2ccccn2)cc1`, the Ki is 0.75 nM.
As to `C=CCc1cccc(-c2ccc(CN(Cc3cccc(NCC(=O)O)n3)S(=O)(=O)c3ccccn3)cc2)c1`, the Ki is 1.7 nM.
